Measured values from US20200297601A1, “COMPOSITION FOR SKIN MOISTURIZATION OR SKIN WHITENING, CONTAINING PENTACYCLIC TRITERPENE CAFFEIC ACID ESTERS” (AMOREPACIFIC CORPORATION, priority 2016, published 2020).

Tested on: filaggrin
Assay: Immunofluorescent staining and imaging of filaggrin in artificial skin
Type: cell-based
Details: artificial skin (AmoreReskin) surface treated for 4 days, FIG. 3
Method: The skin moisturizing effect of Example 1 and Example 4 was evaluated by immunofluorescent staining and imaging of filaggrin which is known as an important skin moisturizing factor.
The surface of artificial skin (AmoreReskin™) was treated with 2 ppm ceramide PC 104, Example 1 and Example 4 for 4 days and then immunofluorescent staining was conducted. The immunofluorescent staining was conducted as follows.
i. Artificial skin is immersed in OCT solution (optimal cutting temperature, Tissue Tek) and stored at −70° C.
ii. The artificial skin is prepared into 10-μm thick sections using a cryotome and fixed on a slide.
iii. Lines are drawn around the artificial skin sections using a PAP pen.
iv. The slide is dried at room temperature for at least 8 hours.
v. The artificial skin sections are washed with PBS and […] in OCT solution.
vi. The artificial skin sections are treated with a blocking solution (1% BSA in PBS) for 30 minutes.
vii. The sections are treated with anti-filaggrin antibody (ab24584, Abcam) for 2 hours.
viii. The sections are treated with Texas Red anti-rabbit antibody (T6391, Life technologies) diluted to 1:200 in a blocking solution for 1 hour.
ix. The sections are stained with DAPI (4′,6-diamidino-2-phenylindole) for 5 minutes.
x. The sections are washed with PBS 3 times.
xi. […]

Substance: 3β,23,28-Trihydroxy-12-oleanene 23-caffeate [Example 1]
- filaggrin protein (immunofluorescence): significantly increased
